Source: patent publication US20240325574A1, “EXTRADOMAIN B FIBRONECTIN TARGETING PEPTIDES AND DERIVATIVES FOR CANCER IMAGING AND THERAPY” (MOLECULAR THERANOSTICS, LLC, priority 2023, published 2024)
Where no end group is shown, it is not given here. S0456 = NIR dye, conjugated to the peptide N-terminus

Key:
[1] = biological target: EDB fragment (Homo sapiens, UniProt P02751); settings: background, earlier work (U.S. Pat. No. 10,653,801); cited from earlier work
[2] = test system: HSC3 HNC xenograft; assay: Topical staining of exposed HSC3 HNC xenograft tumor, fluorescence imaging; format: in vivo, mouse; settings: 1 drop of 40 μM applied topically, rinsed with PBS after 2 minutes
Source text: (§1) FIGS. 3A and 3B provide images showing (A) fluorescence images of the organ tissues of the mice received IV injection of ZD2-S0456, showing ZD2-S0456 binding to HSC3 HNC xenograft. 1: kidney; 2: heart; 3: spleen; 4: brain; 5: muscle; 6: tumor; 7: liver; 8: lung. […] (B) Fluorescence image of mice bearing HSC3 HNC xenografts topically stained with PBS or ZD2-Cy5.5.
(§2) The specific staining of ZD2-S0456 to human HNC tumors comparing to normal tissues was investigated after intravenous injection of ZD2-S0456 in mouse xenograft models (FIG. 3). Mice were injected with 10 nmol/mouse ZD2-S0456 or PBS and euthanized 60 minutes post injection to collect tumor tissue and major organs. […] Furthermore, ZD2-S0456 can identify the tumor margin by topical staining of mouse xenograft tumors. The skin atop the HSC3 HNC xenograft tumor was removed to expose the tumor while the mouse was under anesthesia. Then 1 drop of 40 μM ZD2-Cy5.5 was topically applied to the tumor and surrounding tissues, which was rinsed with PBS after 2 minutes.

[3] = test system: HSC3 HNC xenograft; assay: Fluorescence imaging of tumor and major organs after intravenous injection in HSC3 HNC xenograft mice; settings: 10 nmol/mouse IV, 60 minutes post injection, ex vivo tissue imaging; no signal after PBS
Source text: as §1, §2

[4] = test system: human breast cancer MDA-MB-231 TNBC xenograft; assay: Fluorescence imaging after intravenous injection in MDA-MB-231 TNBC xenograft mice; format: in vivo; settings: 10 nmol/mouse IV, imaged 60 minutes post injection
Procedure: FIG. 4 provide a fluorescence image of mouse bearing human breast cancer MDA-MB-231 TNBC xenograft after IV injection of ZD2-S0456, showing ZD2-S0456 staining to the tumor.
The specific staining of ZD2-S0456 to human TNBC tumors comparing to normal tissues was investigated after intravenous injection of ZD2-S0456 in mouse xenograft models (FIG. 4). Mouse were injected with 10 nmol/mouse ZD2-S0456 and imaged 60 minutes post injection.

Chain of EDB fragment (P02751 1271-1359 limits assumed): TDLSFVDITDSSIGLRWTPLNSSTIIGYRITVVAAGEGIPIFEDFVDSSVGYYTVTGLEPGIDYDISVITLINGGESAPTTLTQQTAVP

In the case of TVRTSAD [ZD2], the “Binding affinity to the EDB fragment” value [1] is listed as “moderate binding affinity”.
With “ZD2-Cy5.5: ZD2 targeted fluorescence dye (Cy5.5) (TVRTSAD; also: Cy5.5 dye conjugated)” the “Fluorescence signal on tumor vs surrounding tissues after topical staining” value [2] was “strong fluorescence signal on the tumor but not the surrounding tissues”.
With “ZD2-S0456: ZD2 peptide with NIR dye S0456 conjugated to its N-terminus (S0456-TVRTSAD-OH)” the “Fluorescence signal in the tumor” value [3] was “strong signal in the tumor” and the “Fluorescence signal in the tumor compared to surrounding normal tissues” value [4] was “stronger signal in the tumor”.
